Measurements reported in patent US20240246941A1, “SUBSTITUTED 4-(3-AMINOPROP-1-YL)AMINOQUINOLINE ANALOGS AS MODULATORS OF MELANOMA-ASSOCIATED ANTIGEN 11 UBIQUITIN LIGASE” (ST. JUDE CHILDREN'S RESEARCH HOSPITAL, INC., priority 2020, published 2024).

Biological target: MAGE-A11:PCF11 (Homo sapiens (Human), UniProt P43364)
Experiment: TR-FRET single point screening at 15 μM
Assay type: binding
Design: unit not given here
Description: TR-FRET Assays and High-throughput Screen. Terbium-anti-GST antibody, 1 M Tris pH 7.5 1 M MgCl2 and 1 M DTT were purchased from Invitrogen (Carlsbad, CA), BSA was purchased from Sigma (St. Louis, MO). Dimethyl sulfoxide (DMSO) was purchased from Fisher Scientific (Pittsburgh, PA). Black 384-well low volume plates and 384-well polypropylene compound plates were purchased from Corning Incorporated (Tewksbury, MA). The St. Jude FDA drug and Bioactive library (11,293 chemicals), Drug-like library (10,073 chemicals) and Lead-like library (10,041 chemicals) were custom assembled and purchased from commercial sources including Sigma, Microsource (Gaylordsville, CT), selleckchem (Houston, TX), ChemDiv (San Diego, CA), ChemBridge (San Diego, CA), Enamine (Monmouth Jct., NJ), and Life Chemicals (Niagara-on-the-Lake, ON, Canada). They were arrayed (10 mM in DMSO) in 384-well polypropylene compound plates with columns 1, 2, 13 and 14 empty which were reserved for controls.
The TR-FRET assay buffer with a formula of 50 mM Tris pH 7.5, 20 mM MgCl2, 0.1 mg/ml BSA and 1 mM DTT was freshly prepared before each experiment. All TR-FRET assays were performed in black 384-well plates with 20 μl/well assay volume in the TR-FRET assay buffer at room temperature (approximately 25° C.). All peptides or compounds were solubilized in DMSO. To test the competitive activity of peptides or compounds against the interaction between GST-MAGEA11 MHD and FAM-PCF11_4 peptide, 10 μl/well peptide or compound at specified concentration was dispensed into a black 384-well low volume plate, followed by 5 μl/well FAM-PCF11_4 (800 nM), 5 μl/well Tb-anti-GST (20 nM) and GST-MAGEA11 MHD (20 nM). The assay components in each well was then mixed by shaking the plate on an IKA MTS 2/4 digital microtiter plate shaker (IKA Works; Wilmington, NC, USA) at 900 RPM for 1 minute. The plate was further centrifuged in an Eppendorf 5810 centrifuge with an A-4-62 swing-bucket rotor (Eppendorf AG, Hamburg, Germany) at 201 g (1000 rpm) for 30 seconds. The plate was then incubated for 90 min with a lid to avoid light exposure to the assay components. After incubation, the fluorescent emission signals at 520 nm and 490 nm channels of individual wells were measured with a PHERAstar FS plate reader (BMG Labtech; Durham, NC, USA) by using a 340 nm excitation filter, 100 μs delay time, and 200 μs integration time. The TR-FRET fluorescence emission ratio (TR-FRET signal) for each well was presented as 10 000×520 nm/490 nm, which was used directly for curve fitting, or further converted to % Inhibition based on the respective positive and negative controls. The graphic software GraphPad Prism 4.81 (GraphPad Software; La Jolla, CA, USA) was used to generate curves and derive IC50 values of tested peptides or compounds, if applicable.
TR-FRET screen for identifying MAGEA11 small molecule inhibitors was performed as follows. The primary one-concentration screening and subsequent 10 or 20-concentration dose response tests were accomplished with an automated High Throughput Screening system (HighRes Biosolutions, Beverly, MA)^30. In the primary screening, 15 μl/well FAM-PCF11_4 (267 nM) was first dispensed with a Multidrop Combi Reagent Dispenser (Thermo Fisher Scientific, Waltham, MA) to black 384-well low volume assay plates. The plates were spun down with a Velocity11 VSpin microplate centrifuge (Agilent Technologies, Santa Clara, CA). 30 nl/well of 10 mM compound/DMSO solutions, or DMSO alone, were transferred from compound plates (the St. Jude FDA drug and bioactive library, Drug-like library and Lead-like library) or a control plate to the assay plates with a Pin Tool (V&P Scientific, San Diego, CA). The compounds were arrayed in columns 3 to 12 and columns 15 to 24 of compound plates. The controls were arrayed in columns 1, 2, 13 and 14 of a compound plate. […]

[1] = single point TR-FRET screening of quinoline compounds against MAGE-A11:PCF11, 15 μM
[2] = single point TR-FRET screening at 15 μM against MAGE-A11:PCF11

Sequence of MAGE-A11:PCF11 (P43364 218-429): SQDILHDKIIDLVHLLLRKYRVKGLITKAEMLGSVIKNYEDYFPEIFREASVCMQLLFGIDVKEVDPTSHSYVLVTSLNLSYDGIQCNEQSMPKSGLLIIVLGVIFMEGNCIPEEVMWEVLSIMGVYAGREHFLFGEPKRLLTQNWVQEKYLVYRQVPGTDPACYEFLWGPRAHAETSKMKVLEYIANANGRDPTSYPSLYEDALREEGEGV

Compound | TR-FRET signal [1] | TR-FRET signal [2]
Clc1ccc2c(NCCCNCc3ccco3)ccnc2c1 [SJ000000502] | 6.349 | –
CN(C)CCNc1c2c(nc3ccccc13)CCC2 [SJ000013622] | – | 3.285
O=C(O)CCCNC(=O)CNc1c2ccccc2nc2ccccc12 [SJ000016432] | – | 9.598
CC(Nc1c2ccccc2nc2ccccc12)C(=O)NC(CC(N)=O)C(=O)O (centres unmarked) [SJ000016433] | – | 22.71
CCOC(=O)c1cnc2c(ccc3ccccc32)c1NCCN(C)C [SJ000019487] | – | 6.418
CCN(CC)CC(=O)Nc1c2c(nc3ccccc13)CCCC2 [SJ000019523] | – | 2.741
CCOC(=O)c1cnc2c(C)cc(Cl)cc2c1NCCN(C)C [SJ000027210] | – | 3.834
CCOC(=O)c1cnc2c(Cl)c(Cl)ccc2c1NCCN(C)C [SJ000027266] | – | 2.575
CCOC(=O)c1cnc2ccc(C)cc2c1NCCN1CCOCC1 [SJ000027268] | – | −0.3915
CCOC(=O)c1cnc2ccc(OCC)cc2c1NCCN(C)C [SJ000027288] | – | 10.66
CCOC(=O)c1cnc2ccc(OCC)cc2c1NCCN1CCOCC1 [SJ000027289] | – | 5.291
CN(C)CCCNc1c2c(nc3ccccc13)CCC2 [SJ000029259] | 24.05 | –
CCOC(=O)c1cnc2ccc(Br)cc2c1NCCN1CCOCC1 [SJ000031339] | – | −47.24
CCOC(=O)c1ccc2ncc(C(=O)OCC)c(NCCN3CCOCC3)c2c1 [SJ000031347] | – | 0.6542
CCOC(=O)c1cnc2c(C)c(Cl)ccc2c1NCCN(C)C [SJ000037393] | – | −1.333
CCOC(=O)c1cnc2c(C)cc(C)cc2c1NCCN(C)C [SJ000037396] | – | 4.92
CCOC(=O)c1cnc2c(C)cc(C)cc2c1NCCCN(C)C [SJ000037397] | 14.93 | –
CN(C)CCCNc1c2ccccc2nc2ccccc12 [SJ000044378] | 16.77 | –
NC(=O)CC(Nc1c2ccccc2nc2ccccc12)C(=O)O (centres unmarked) [SJ000044383] | 20.1 | –
CCc1nc2ccccc2c(NC(=O)CNC(C)(C)CC(C)(C)C)c1C [SJ000049110] | – | −0.6045

Compound | TR-FRET signal [1] | TR-FRET signal [2]
CCN(CC)CC(=O)Nc1c2c(nc3ccccc13)CCC2 [SJ000049655] | – | 0.6542
Cc1ccc2ncc(S(=O)(=O)c3ccccc3)c(N3CCN(C)CC3)c2c1 [SJ000083945] | – | −8.419
CCc1ccc2ncc(S(=O)(=O)c3ccccc3)c(N3CCN(C)CC3)c2c1 [SJ000083946] | – | −6.249
COc1ccc2ncc(S(=O)(=O)c3ccccc3)c(N3CCN(C)CC3)c2c1 [SJ000083947] | – | −2.094
CCOc1ccc2ncc(S(=O)(=O)c3ccccc3)c(N3CCN(C)CC3)c2c1 [SJ000083948] | – | −3.938
CN1CCN(c2c(S(=O)(=O)c3ccccc3)cnc3ccc(F)cc23)CC1 [SJ000083949] | – | −11.5
CN1CCN(c2c(S(=O)(=O)c3ccccc3)cnc3ccc(Cl)cc23)CC1 [SJ000083950] | – | −5.374
COc1cc2ncc(S(=O)(=O)c3ccc(C)cc3)c(N3CCN(C)CC3)c2cc1OC [SJ000083951] | – | 1.313
COc1ccc2ncc(S(=O)(=O)c3ccc(Cl)cc3)c(N3CCN(C)CC3)c2c1 [SJ000083952] | – | −3.658
COc1cc2ncc(S(=O)(=O)c3ccc(Cl)cc3)c(N3CCN(C)CC3)c2cc1OC [SJ000083953] | – | 4.674
CCc1ccc2ncc(S(=O)(=O)c3ccc(OC)cc3)c(N3CCN(C)CC3)c2c1 [SJ000083954] | – | −5.969
COc1ccc(S(=O)(=O)c2cnc3cc(OC)c(OC)cc3c2N2CCN(C)CC2)cc1 [SJ000083955] | – | 0.8227
CCN1CCN(c2c(S(=O)(=O)c3ccccc3)cnc3ccc(C)cc23)CC1 [SJ000083956] | – | −3.448
CCc1ccc2ncc(S(=O)(=O)c3ccccc3)c(N3CCN(CC)CC3)c2c1 [SJ000083957] | – | 3.238
CCN1CCN(c2c(S(=O)(=O)c3ccccc3)cnc3ccc(OC)cc23)CC1 [SJ000083958] | – | 0.1242
CCOc1ccc2ncc(S(=O)(=O)c3ccccc3)c(N3CCN(CC)CC3)c2c1 [SJ000083959] | – | 4.534
CCN1CCN(c2c(S(=O)(=O)c3ccccc3)cnc3ccc(Cl)cc23)CC1 [SJ000083960] | – | 4.43
CCN1CCN(c2c(S(=O)(=O)c3ccc(C)cc3)cnc3ccc(C)cc23)CC1 [SJ000083961] | – | 0.2213
CCc1ccc2ncc(S(=O)(=O)c3ccc(C)cc3)c(N3CCN(CC)CC3)c2c1 [SJ000083962] | – | 2.377
CCN1CCN(c2c(S(=O)(=O)c3ccc(C)cc3)cnc3ccc(OC)cc23)CC1 [SJ000083963] | – | −3.917

Compound | TR-FRET signal [1] | TR-FRET signal [2]
CCOc1ccc2ncc(S(=O)(=O)c3ccc(C)cc3)c(N3CCN(CC)CC3)c2c1 [SJ000083964] | – | −5.899
CCN1CCN(c2c(S(=O)(=O)c3ccc(C)cc3)cnc3cc(OC)c(OC)cc23)CC1 [SJ000083965] | – | 7.146
CCN1CCN(c2c(S(=O)(=O)c3ccc(C)cc3)cnc3ccc(Cl)cc23)CC1 [SJ000083966] | – | −4.358
CCN1CCN(c2c(S(=O)(=O)c3ccc(Cl)cc3)cnc3ccc(C)cc23)CC1 [SJ000083967] | – | −3.098
CCc1ccc2ncc(S(=O)(=O)c3ccc(Cl)cc3)c(N3CCN(CC)CC3)c2c1 [SJ000083968] | – | −19.13
CCOc1ccc2ncc(S(=O)(=O)c3ccc(Cl)cc3)c(N3CCN(CC)CC3)c2c1 [SJ000083969] | – | −4.989
CCN1CCN(c2c(S(=O)(=O)c3ccc(Cl)cc3)cnc3cc(OC)c(OC)cc23)CC1 [SJ000083970] | – | −6.809
CCOc1ccc2ncc(S(=O)(=O)c3ccc(OC)cc3)c(N3CCN(CC)CC3)c2c1 [SJ000083971] | – | −6.389
CCN1CCN(c2c(S(=O)(=O)c3ccc(OC)cc3)cnc3cc(OC)c(OC)cc23)CC1 [SJ000083972] | – | 7.411
Cc1ccc2ncc(S(=O)(=O)c3ccccc3)c(N3CCN(c4ccccc4)CC3)c2c1 [SJ000083973] | – | −29.7
COc1ccc2ncc(S(=O)(=O)c3ccccc3)c(N3CCN(c4ccccc4)CC3)c2c1 [SJ000083974] | – | −133
CCOc1ccc2ncc(S(=O)(=O)c3ccccc3)c(N3CCN(c4ccccc4)CC3)c2c1 [SJ000083975] | – | −12.06
O=S(=O)(c1ccccc1)c1cnc2ccc(F)cc2c1N1CCN(c2ccccc2)CC1 [SJ000083976] | – | −31.1
O=S(=O)(c1ccccc1)c1cnc2ccc(Cl)cc2c1N1CCN(c2ccccc2)CC1 [SJ000083977] | – | −15.7
COc1ccc2ncc(S(=O)(=O)c3ccccc3)c(N3CCN(c4ccc(F)cc4)CC3)c2c1 [SJ000083978] | – | −133.1
CCOc1ccc2ncc(S(=O)(=O)c3ccccc3)c(N3CCN(c4ccc(F)cc4)CC3)c2c1 [SJ000083979] | – | −181.3
O=S(=O)(c1ccccc1)c1cnc2ccc(F)cc2c1N1CCN(c2ccc(F)cc2)CC1 [SJ000083980] | – | −11.08
COc1ccc(N2CCN(c3c(S(=O)(=O)c4ccccc4)cnc4ccc(C)cc34)CC2)cc1 [SJ000083981] | – | −37.97
COc1ccc(N2CCN(c3c(S(=O)(=O)c4ccccc4)cnc4ccc(F)cc34)CC2)cc1 [SJ000083982] | – | −32.85
